# Source: patent US12643884B2, “1-(2-(4-cyclopropyl-1H-1,2,3-triazol-1-yl)acetyl)-4-hydroxypyrrolidine-2-carboxa|mide derivatives as VHL inhibitors for the treatment of anemia” (Genentech, Inc., priority 2020, dated 2026)
# How the values were obtained:
# [1] = target: T1, VHL Elongin B/C complex (Homo sapiens, UniProt P40337); test: Fluorescence Polarization (FP) VHL Binding Assay; details: fluorescence polarization tracer competition; geometric mean where more than one measurement
# T1 construct: amino acids E55-D213 of human VHL; His6 (N); TEV-protease cleavage site (N); made in house; host or cells: E. coli
# T1 sequence (P40337 55-213): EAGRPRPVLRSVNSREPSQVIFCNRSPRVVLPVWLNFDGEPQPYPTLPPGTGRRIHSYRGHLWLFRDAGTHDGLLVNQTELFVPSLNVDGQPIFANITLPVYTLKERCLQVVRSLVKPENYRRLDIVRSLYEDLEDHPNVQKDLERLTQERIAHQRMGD
# T1 sequence (Q15370 whole entry partner, the tested form may be a part): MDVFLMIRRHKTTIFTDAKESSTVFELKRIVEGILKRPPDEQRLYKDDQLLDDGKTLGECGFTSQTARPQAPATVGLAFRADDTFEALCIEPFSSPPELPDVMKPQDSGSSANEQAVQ
# T1 sequence (Q15369 17-112 partner limits assumed): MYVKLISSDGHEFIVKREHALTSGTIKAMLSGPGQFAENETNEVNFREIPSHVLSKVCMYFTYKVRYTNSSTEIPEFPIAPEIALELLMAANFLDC
# Procedure: The binding of test compounds to the VHL Elongin B/C complex is measured using a fluorescence polarization tracer competition assay. The VHL/Elongin B/C protein complex used in the assay is generated as follows. The coding region for amino acids E55-D213 of human VHL with N-terminal His6 tag with a TEV-protease cleavage site is co-expressed with Elongin B (residues M1-Q118) and Elongin C (Residues M17-C112) in E. coli. The VHL/Elongin B/C complex is purified using an affinity nickel column, anion exchange HiTrap QP HP column chromatography, and gel filtration using a Superdex 75 26/60 column. […] A VHL fluorescence polarization probe consists of a VHL ligand coupled to carboxytetramethylrhodamine (TAMRA); (2S,4R)—N-(2-(2-(3′,6′-bis(dimethylamino)-3-oxo-3H-spiro[isobenzofuran-1,9′-xanthene]-5-carboxamido)ethoxy)-4-(4-methylthiazol-5-yl)benzyl)-4-hydroxy-1-((R)-3-methyl-2-(3-methylisoxazol-5-yl)butanoyl)pyrrolidine-2-carboxamide. […] A “pre-assay” fluorescence measurement is made using an Infinite® M1000 (Tecan) plate reader (Excitation 530 nm, Emission 574 nm, Bandwidth 10 nm). […] “Post-assay” fluorescence polarization measurements are made as described for the “pre-assay” fluorescence measurement. […] The data are analyzed using Genedata Screener software and normalized to the “no VHL control” and “VHL control” (without compound). […]
# [2] = target: T2, NanoLuc VHL fusion protein stably expressed in HEK 293 cells (Homo sapiens, UniProt P40337); test: VHL HEK-293 BRET Assay (VHL NanoBRET Target Engagement Assay); type: cell-based; details: for IC50: HEK293 cells, nanoBRET, geometric mean where more than one measurement, read-out: VHL binding in cells (HEK293 nanoBRET); for Ratio cell permeability shift: ratio of nanoBRET in cells to nanoBRET +Digitonin
# T2 construct: expressed in transfected cells
# T2 sequence (P40337 whole entry, the tested form may be a part): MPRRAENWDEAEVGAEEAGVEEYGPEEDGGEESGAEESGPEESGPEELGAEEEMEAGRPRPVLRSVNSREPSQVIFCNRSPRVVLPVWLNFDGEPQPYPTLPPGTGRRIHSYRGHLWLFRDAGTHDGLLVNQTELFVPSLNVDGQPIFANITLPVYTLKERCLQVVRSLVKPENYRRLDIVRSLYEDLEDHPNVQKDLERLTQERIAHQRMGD
# T2 sequence (Q15370 whole entry partner, the tested form may be a part): as the sequence (Q15370 whole entry partner, the tested form may be a part) above
# T2 sequence (Q15369 whole entry partner, the tested form may be a part): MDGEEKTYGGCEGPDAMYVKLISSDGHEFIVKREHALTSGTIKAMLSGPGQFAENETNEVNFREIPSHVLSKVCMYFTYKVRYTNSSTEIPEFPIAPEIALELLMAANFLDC
# Procedure: The VHL NanoBRET™ Target Engagement Assay analyzes the apparent affinity of test compounds for VHL in cells by competitive displacement of a VHL NanoBRET™ tracer reversibly bound to a NanoLuc® VHL fusion protein stably expressed in the cells.
# Test compounds were transferred to the assay plate (384 Well White Non-Binding Corning Assay Plates (Corning-3574)) using an Echo 555 Liquid Handler (Labcyte) in 2.5 nL increments and, as appropriate, intermediate stock concentrations of compounds, in order to prepare a titration series. 50 nL of control compound (10 mM; parental unlabeled VHL antagonist; see structure below) and 50 nL of DMSO (negative control) were dispensed into the appropriate control wells. DMSO was backfilled to a final volume of 50 nL as required. 50 nl per well of 1 mM VHL NanoBRET™ Tracer in DMSO (NanoBRET™ Tracer-PEG2-590 (see structure below)) was transferred into each well using an Echo 555 (ultimately yielding a final concentration of 1 uM). HEK 293 RT VHL-NanoLuc® stable cells were cultured in DMEM High Glucose with Pyruvate, 10% fetal bovine serum, 2 mg/mL of Geneticin Selective Antibiotic (50 mg/ml) and 2 mM HEPES (1 M). Cells were seeded in Opti-MEM (Life Technologies-11058-021), 1.7×10^5 cells/mL, 40 μl per well into the assay plate, centrifuged at 500 rpm for 30 seconds and incubated for 2 hours. Max Signal control wells consisted of DMSO only treated wells. Minimum Signal control wells contained of 10 uM parental unlabeled VHL antagonist (control compound—see structure below). 3× Complete Substrate plus Inhibitor Solution was prepared in Opti-MEM (consists of a 1:166 dilution of NanoBRET™ Nano-Glo® Substrate plus a 1:500 dilution of Extracellular NanoLuc® Inhibitor in Opti-MEM), and 20 ul was dispensed into each well of the 384-well plate and centrifuged at 1000 rpm for 1 minute, then incubated for 2 minutes at room temperature. Background Signal control wells were prepared without tracer for background correction steps.
# Plates were read using a PerkinElmer Envision Reader (model 2104-0020) equipped with Luminescence option (Mirror: BRET2 Enh (PE Barcode 659), Emission Filter: Omega 610LP (Barcode 504), 2nd Emission Filter: Umbelliferone 460 (Barcode 207), Measurement height: 6.5 mm, Measurement time: 1 s). The raw BRET ratio values were calculated by dividing the acceptor emission value (610 nm) by the donor emission value (460 nm) for each sample. To correct for background, the BRET ratio in the absence of tracer (average of no-tracer control samples) was subtracted from the BRET ratio of each sample. Raw BRET units were converted to milliBRET units (mBU) by multiplying each raw BRET value by 1,000. The normalized NanoBRET™ signal was calculated relative to the Max Signal control wells (DMSO treated control wells) and the Minimum Signal control wells. Percentage inhibition was calculated relative to the Minimum Signal control and Maximum Signal control wells. IC50 values were derived by four parameter curve fitting using the Robust method.
# [3] = target: T3, VHL (Homo sapiens, UniProt P40337); test: VHL nanoBRET (+Digitonin); type: cell-based
# T3 construct: expressed in transfected cells
# T3 sequence (P40337 whole entry): as the sequence (P40337 whole entry, the tested form may be a part) above
# T3 sequence (Q15370 whole entry partner): as the sequence (Q15370 whole entry partner, the tested form may be a part) above
# T3 sequence (Q15369 whole entry partner): as the sequence (Q15369 whole entry partner, the tested form may be a part) above
IC50 [1] [nM],IC50 [2] [nM],Ratio cell permeability shift [2],EC50 [3] [nM],SMILES
1170,2000,1.71,2140,"CC(C)(C)[C@@H](C(=O)N1C[C@H](O)C[C@H]1C(N)=O)n1cc(C2CC2)nn1 [Final product from Example S1, (2S,4R)-1-((S)-2-(4-cyclopropyl-1H-1,2,3-triazol-1-yl)-3,3-dimethylbutanoyl)-4-hydroxypyrrolidine-2-carboxamide]"
,49900,0.69,72300,"CC(C)[C@@H](C(=O)N1C[C@H](O)C[C@H]1C(=O)N(C)C)n1cc(C2CC2)nn1 [Final product from Example S41, (2S,4R)-1-((S)-2-(4-cyclopropyl-1H-1,2,3-triazol-1-yl)-3-methylbutanoyl)-4-hydroxy-N,N-dimethylpyrrolidine-2-carboxamide]"
